Legend:
Huh7, Mahlavu and MCF7 = assay: SRB cytotoxicity, summary for all three cell lines; assay type: cell-based; settings: Homo sapiens; one value or range for Huh7, Mahlavu and MCF7 together; read-out: IC50 against all three cell lines
Protocol: (§1) Mahlavu, FOCUS, SNU475 (1000 cell/well in 150 μL/well); Huh7, MCF7 (2500 cell/well in 150 μL/well); HepG2, Hep3B, SKBR3 (3000 cell/well in 150 μL/well); PLC-PRF-5, Hep40 (5000 cell/well in 150 μL/well); MDA-MB-231, MDA-MB-468, MCF10A (6000 cell/well in 150 μL/well); and ZR-75 (7500 cell/well in 150 μL/well) were cultured in 96-well plates and were inoculated in an incubator for 24 hours. The compounds were dissolved in dimethyl sulfoxide (DMSO) (Sigma, St Louis, MO) as a 20 mM stock solution. The treatment of cells with the compounds was done in a concentration range starting from 40 to 2.5 μM. The compounds which were below 2.5 μM were tested in a concentration range from 2.5 to 0.15 μM. End of the 72h compound treatment, the cells were fixed using 10% (v/v) trichloroacetic acid (MERCK) for an hour and washed with ddH2O, and left for air-drying. The fixed plates were stained with 50 μL of sulforhodamine B (SRB) solution (Sigma) at RT for 10 min. To remove unbound SRB dye, acetic acid was used to wash cells three times and left for drying. The protein-bound SRB was solubilized with 10 mM Tris-base (Sigma) and their absorbance was measured with a 96-well plate reader at 515 nm wavelength (ELx800, Biotek). The IC50 values of compounds were calculated in comparison with control group DMSO. Data with R^2 values larger than 0.9 are considered significant.

MCF7 = assay: SRB cytotoxicity assay; assay type: cell-based, human; settings: 72 h treatment
Protocol: (§2) HepG2, FOCUS, Hep3B, Mahlavu, Huh7, Hep40, and PLC-PRF-5 hepatocellular carcinoma cells; MCF-7, MDA-MB-231, MDA-MB-468, SKBR3, and ZR-75 breast cancer cells; and normal-like epithelial MCF-10A breast cells were cultured in low-glucose Dulbecco’s modified Eagle’s medium (DMEM) (Biological Industries-BI) supplemented with 10% fetal bovine serum (FBS) (Gibco/Thermo Fisher Scientific), 2 mM L-Glutamine (Gibco/Thermo Fisher Scientific), 100 Units/mL Penicillin/Streptomycin, and 0.1 mM non-essential amino acid (Gibco/Thermo Fisher Scientific). SNU475 hepatocellular carcinoma cells were maintained in RPMI (Biological Industries-BI) supplemented with 10% fetal bovine serum (FBS) (Gibco/Thermo Fisher Scientific), L-Glutamine (Gibco/Thermo Fisher Scientific), and 100 Units/mL Penicillin/Streptomycin, while ZR-75 breast cancer cells were cultured RPMI (Biological Industries-BI) supplemented with 10% fetal bovine serum (FBS) (Gibco/Thermo Fisher Scientific), 1× sodium pyruvate, and %4.5 glucose. Normal-like MCF-10A breast cells were sustained in DMEM/HAM’S F12 (Hyclone) supplemented with 10% fetal bovine serum (FBS) (Gibco/Thermo Fisher Scientific), EGF (20 ng/mL), Hydrocortisone ([…]), cholera toxin (100 ng/mL), insulin (10 μg/mL), and 100 Units/mL Penicillin/Streptomycin. The cells were cultivated at 37 °C in a humidified incubator under 5% CO2.
as §1

Mahlavu = assay: SRB cytotoxicity assay; assay type: cell-based, human; settings: 72 h treatment
Protocol: as §2, §1

Huh7 = assay: SRB cytotoxicity assay; assay type: cell-based, human; settings: 72 h treatment
Protocol: as §2, §1

Huh7 and MCF7 = assay: SRB cytotoxicity, summary for both cell lines; assay type: cell-based; settings: Homo sapiens; one value or range for Huh7 and MCF7 together; read-out: IC50 against both cell lines
Protocol: as §1

| SMILES | IC50 (Huh7, Mahlavu and MCF7) | melting point | IC50 (MCF7; Homo sapiens, MCF7, 72 h) | IC50 (Mahlavu; Homo sapiens, Mahlavu, 72 h) | IC50 (Huh7; Homo sapiens, Huh-7, 72 h) | IC50 (Huh7 and MCF7) | IC50 (Huh7) | IC50 (MCF7) | IC50 (Mahlavu) |
| --- | --- | --- | --- | --- | --- | --- | --- | --- | --- |
| Cc1ccccc1COc1ccc(-c2noc(N)c2-c2ccc(Cl)cc2)cc1 [compound 65, 4-(4-Chlorophenyl)-3-(4-((2-methylbenzyl)oxy)phenyl)isoxazole-5-amine] | 2 to 3.9 µM | 163.1 to 165.6 °C | 3.6 µM | 3.9 µM | 2 µM | – | – | – | – |
| Cc1cc(-c2ccc(Cl)cc2)n(-c2ccc(OCc3ccccc3C)cc2)n1 [compound 79, 5-(4-Chlorophenyl)-3-methyl-1-(4-((2-methylbenyl)oxy)phenyl)-1H-pyrazole] | 0.7 to 14.4 µM | 103.4 to 105.2 °C | 11.8 µM | 9.6 µM | 3.9 µM | – | – | – | – |
| Cc1ccccc1COc1ccc(-c2nn(C)cc2-c2ccc(Cl)cc2)cc1 [compound 72, 4-(4-Chlorophenyl)-1-methyl-3-(4-((2-methylbenzyl)oxy)phenyl)-1H-pyrazole] | 0.7 to 14.4 µM | 142.2 to 143.4 °C | 14.4 µM | 12 µM | 6.7 µM | – | – | – | – |
| Cc1onc(-c2ccc(OCc3ccccc3)cc2)c1-c1ccc(Cl)cc1 [compound 9, 3-(4-(Benzyloxy)phenyl)-4-(4-chlorophenyl)-5-methylisoxazole] | – | 114.7 to 115.7 °C | > 20 µM | – | ≥ 20 µM | ≥ 20 µM | > 20 µM | – | – |
| Cc1cccc(COc2ccc(-c3noc(C)c3-c3ccc(Cl)cc3)cc2)c1 [compound 19, 4-(4-Chlorophenyl)-5-methyl-3-(4-((3-methylbenzyl)oxy)phenyl)isoxazole] | – | 119.9 to 121 °C | > 20 µM | – | > 20 µM | ≥ 20 µM | – | – | – |
| Cc1ccccc1COc1ccc(-c2ccnn2-c2ccc(Cl)cc2)c(F)c1 [compound 88, 1-(4-Chlorophenyl)-5-(2-fluoro-4-((2-methylbenzyl)oxy)phenyl)-1H-pyrazole] | 1.6 to 6.4 µM | 131.8 to 132.8 °C | 6.4 µM | 3.2 µM | 1.6 µM | – | – | – | – |
| Cc1ccc(COc2ccc(-c3noc(C)c3-c3ccc(Cl)cc3)cc2)cc1 [compound 24, 4-(4-Chlorophenyl)-5-methyl-3-(4-((4-methylbenzyl)oxy)phenyl)isoxazole] | – | 116.9 to 118.5 °C | > 20 µM | – | > 20 µM | ≥ 20 µM | – | – | – |
| Cc1ccccc1COc1ccc(-c2[nH]ncc2-c2ccc(Cl)cc2)cc1 [compound 71, 4-(4-Chlorophenyl)-5-(4-((2-methylbenzyl)oxy)phenyl)-1H-pyrazole] | 0.7 to 14.4 µM | 127.8 to 129.8 °C | 17.5 µM | 11 µM | 8.4 µM | – | – | – | – |
| Cc1ccccc1COc1ccc(-c2c(-c3ccc(Cl)cc3)noc2C)cc1 [compound 67, 3-(4-Chlorophenyl)-5-methyl-4-(4-((2-methylbenzyl)oxy)phenyl)isoxazole] | ≥ 20 µM | 84.5 to 86.5 °C | > 20 µM | > 20 µM | > 20 µM | – | – | – | – |
| Cc1ccccc1COc1ccc(-c2oncc2-c2ccc(Cl)cc2)cc1 [compound 63, 4-(4-Chlorophenyl)-5-(4-((2-methylbenzyl)oxy)phenyl)isoxazole] | – | 115.3 to 117.3 °C | ≥ 20 µM | ≥ 20 µM | 1.5 µM | – | – | > 20 µM | 20.1 µM |
| Cc1ccccc1CNc1ccc(-c2ccnn2-c2ccc(Cl)cc2)cc1 [compound 92, 4-(1-(4-Chlorophenyl)-1H-pyrazol-5-yl)-N-(2-methylbenzyl)aniline] | – | 141.5 to 142.8 °C | > 20 µM | 4.5 µM | 3.6 µM | – | – | – | – |
| Cc1ccccc1C(=O)Nc1ccc(-c2ccnn2-c2ccc(Cl)cc2)cc1 [compound 91, N-(4-(1-(4-Chlorophenyl)-1H-pyrazol-5-yl)phenyl)-2-methylbenzamide] | – | 179.1 to 180 °C | > 20 µM | > 20 µM | > 20 µM | – | – | – | – |
| Cc1cc(-c2ccc(OCc3ccccc3C)cc2)n(-c2ccc(Cl)cc2)n1 [compound 69, 1-(4-Chlorophenyl)-3-methyl-5-(4-((2-methylbenzyl)oxy)phenyl)-1H-pyrazole] | 0.7 to 14.4 µM | 111.8 to 113.6 °C | 11.9 µM | 9.2 µM | 2 µM | – | – | – | – |

— article PMC9583322, “Vicinal Diaryl-Substituted Isoxazole and Pyrazole Derivatives with In Vitro Growth Inhibitory and In Vivo Antitumor Activity” (ACS Omega, 2022)
